The results in this text go back to ChEMBL document CHEMBL1201862, “PubChem BioAssay data set” (2004).

Among the test systems are SK-OV-3; IGROV-1; TK-10; SF-268; HOP-92; SF-539; SK-MEL-28; NCI/ADR-RES; T47D; HCT-15; NCI-H226; 786-0; RXF 393; OVCAR-4; NCI-H460; Hs-578T; EKVX; M14; HOP-62; SK-MEL-2.
What all share (assay): inhibition of tumour cell growth, NCI panel, 48 h

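Each compound was tested at five concentrations against cells in 96-well plates for 48 hours. GI50 = concentration required for 50% inhibition of growth.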 Active and inactive are the calls of the source. No stated cut-off is given here; in the data, active = GI50 up to about 1.1 µM and inactive = higher.

With `Nc1ccc2nc3n(c(=O)c2c1)CCCCC3`, the GI50 with SK-OV-3, in the assay with IGROV-1, in the assay on TK-10, in the assay on SF-268, in the assay with HOP-92 and in the assay on SF-539 was > 100 µM (inactive) each time. For the same compound, the GI50 with SK-MEL-28 was > 100 µM (inactive); with NCI/ADR-RES, > 100 µM (inactive); in the assay with T47D, > 100 µM (inactive); in the assay on HCT-15 it was more than 100 µM; in the assay on NCI-H226 it was > 100 µM (inactive); with 786-0, > 100 µM (inactive). In addition, the GI50 in the assay on RXF 393, in the assay on OVCAR-4, with NCI-H460, with Hs-578T, in the assay with EKVX and in the assay on M14 was > 100 µM (inactive) each time. Also, the GI50 with HOP-62 and in the assay with SK-MEL-2 was > 100 µM (inactive) each time.
Turning to `CC(=O)c1[nH]c(NC(C)C)c(C(=S)Nc2ccccc2)c1N`, the GI50 in the assay on SK-OV-3 is 65.9 µM (inactive); in the assay on IGROV-1 it was 26.4 µM (inactive); with TK-10, 40.8 µM (inactive); in the assay with SF-268 it was 25.3 µM (inactive); in the assay with HOP-92, 17.7 µM (inactive); in the assay on SF-539, > 100 µM (inactive). Besides, the GI50 is 32.4 µM (inactive) in the assay with SK-MEL-28; 68.5 µM (inactive) with NCI/ADR-RES; 21.4 µM (inactive) in the assay with T47D; 26.9 µM in the assay with HCT-15; 21.1 µM (inactive) in the assay on NCI-H226; 24.3 µM (inactive) in the assay on 786-0. Besides, the GI50 with RXF 393 was 18.4 µM (inactive); with OVCAR-4, 30.4 µM (inactive); in the assay with NCI-H460 it was 31.8 µM (inactive); in the assay with Hs-578T, 36 µM (inactive); with EKVX it was 37 µM (inactive); in the assay with M14, 19.8 µM (inactive). Besides, the GI50 was 38 µM (inactive) in the assay on HOP-62 and 17.9 µM (inactive) in the assay on SK-MEL-2.
Take `COCOc1cc(OCOC)cc(C(=O)Oc2ccccc2)c1`: the GI50 with SK-OV-3, in the assay with IGROV-1, in the assay with TK-10, in the assay with SF-268, with HOP-92 and in the assay with SF-539 was > 100 µM (inactive) each time. Besides, the GI50 with SK-MEL-28 was > 100 µM (inactive); with NCI/ADR-RES, > 100 µM (inactive); with T47D, 57.4 µM (inactive); with HCT-15 it was more than 100 µM; with NCI-H226 it was > 100 µM (inactive); in the assay on 786-0 it was > 100 µM (inactive). Besides, the GI50 was > 100 µM (inactive) with RXF 393; > 100 µM (inactive) with OVCAR-4; > 100 µM (inactive) in the assay with NCI-H460; 43.1 µM (inactive) with Hs-578T; 91.4 µM (inactive) with EKVX; > 100 µM (inactive) in the assay with M14. The GI50 in the assay with HOP-62 and in the assay on SK-MEL-2 was > 100 µM (inactive) throughout.
Consider `C=CC(=C)CCC(Br)C(C)(C)Br` (stereo not given), for which the GI50 with SK-OV-3 is > 100 µM (inactive); with IGROV-1, 80.7 µM (inactive); in the assay with TK-10, > 100 µM (inactive); in the assay with SF-268 it was > 100 µM (inactive); in the assay on HOP-92, 91.2 µM (inactive); in the assay on SF-539, > 100 µM (inactive). In addition, the GI50 was > 100 µM (inactive) in the assay with SK-MEL-28; > 100 µM (inactive) in the assay with NCI/ADR-RES; 66.2 µM (inactive) with T47D; more than 100 µM in the assay on HCT-15; > 100 µM (inactive) in the assay on NCI-H226; 99.1 µM (inactive) with 786-0. In addition, the GI50 was > 100 µM (inactive) in the assay with RXF 393; > 100 µM (inactive) in the assay on OVCAR-4; > 100 µM (inactive) in the assay with NCI-H460; > 100 µM (inactive) with Hs-578T; > 100 µM (inactive) with EKVX; 75.9 µM (inactive) with M14. Besides, the GI50 with HOP-62 and in the assay with SK-MEL-2 was > 100 µM (inactive) each time.
`O=c1c2cc3c(cc2[nH]c2ncccc12)OCO3`: the GI50 in the assay with SK-OV-3, in the assay on IGROV-1, with TK-10, in the assay with SF-268, with HOP-92 and in the assay on SF-539 was > 10 µM (inactive) throughout. Also, the GI50 with SK-MEL-28 is > 10 µM (inactive); in the assay on NCI/ADR-RES, > 10 µM (inactive); in the assay on T47D, > 10 µM (inactive); with HCT-15 it was more than 10 µM; in the assay on NCI-H226, > 10 µM (inactive); in the assay with 786-0, > 10 µM (inactive). Also, the GI50 in the assay on RXF 393, with OVCAR-4, in the assay with NCI-H460, with Hs-578T, with EKVX and in the assay with M14 was > 10 µM (inactive) throughout. Further, the GI50 with HOP-62 and with SK-MEL-2 was > 10 µM (inactive) in each case.
On to `O=[N+]([O-])/C(Cl)=C(\NCCO)C(Cl)=C(Cl)Cl`, for which the GI50 with SK-OV-3 is > 100 µM (inactive); in the assay on IGROV-1 it was > 100 µM (inactive); in the assay with TK-10 it was > 89.3 µM (inactive); with SF-268, 87.9 µM (inactive); in the assay on HOP-92, > 84.5 µM (inactive); with SF-539 it was > 100 µM (inactive). Moreover, the GI50 in the assay on SK-MEL-28 was > 85.7 µM (inactive); in the assay with NCI/ADR-RES, 61.1 µM (inactive); with T47D, 57.7 µM (inactive); in the assay with HCT-15, 30.8 µM; in the assay on NCI-H226 it was > 100 µM (inactive); with 786-0, 45 µM (inactive). Besides, the GI50 in the assay on RXF 393 is 56.1 µM (inactive); in the assay with OVCAR-4, 59.4 µM (inactive); with NCI-H460, > 100 µM (inactive); in the assay with Hs-578T, > 65.5 µM (inactive); with EKVX, > 100 µM (inactive); in the assay with M14 it was 38.8 µM (inactive). Besides, the GI50 with HOP-62 and in the assay on SK-MEL-2 was > 100 µM (inactive) in each case.
On to `Cc1cccc(NC(=S)N/N=C(/c2ccccc2)c2ccccn2)c1`, for which the GI50 with SK-OV-3 was 0.038 µM (active); with IGROV-1, < 0.0182 µM (active); in the assay on TK-10, 0.117 µM (active); in the assay on SF-268 it was 0.0863 µM (active); with HOP-92, 0.484 µM (active); with SF-539 it was 1.31 µM (inactive). Also, the GI50 in the assay with SK-MEL-28 is 1.89 µM (inactive); in the assay with NCI/ADR-RES, 0.138 µM (active); in the assay with T47D it was 0.0579 µM (active); in the assay on HCT-15, 0.0255 µM; with NCI-H226, 0.207 µM (active); with 786-0, 0.948 µM (active). The GI50 with RXF 393 is 0.667 µM (active); in the assay on OVCAR-4 it was 0.368 µM (active); in the assay with NCI-H460, 0.159 µM (active); in the assay on Hs-578T, 9.02 µM (inactive); with EKVX it was 0.0885 µM (active); in the assay on M14, < 0.01 µM (active). In addition, the GI50 with HOP-62 is 1.29 µM (inactive); in the assay on SK-MEL-2, 2.49 µM (inactive).
In the case of `N#CC(C#N)=C(N)/C(C#N)=C/c1cc(O)c(O)c(Br)c1`, the GI50 in the assay on SK-OV-3 is > 93.1 µM (inactive); with IGROV-1 it was > 65.2 µM (inactive); in the assay with TK-10 it was > 100 µM (inactive); in the assay with SF-268 it was > 62.5 µM (inactive); in the assay on HOP-92, 46 µM (inactive); with SF-539 it was 44.1 µM (inactive). The GI50 in the assay on SK-MEL-28 was > 100 µM (inactive); with NCI/ADR-RES it was 36.4 µM (inactive); in the assay on T47D it was 32.7 µM (inactive); in the assay with HCT-15, 48.8 µM; in the assay with NCI-H226, 21.1 µM (inactive); with 786-0, > 78.2 µM (inactive). Further, the GI50 was > 100 µM (inactive) with RXF 393; 38.6 µM (inactive) in the assay on OVCAR-4; 38.1 µM (inactive) in the assay on NCI-H460; 38.9 µM (inactive) in the assay with Hs-578T; 52.8 µM (inactive) in the assay on EKVX; > 75.9 µM (inactive) with M14. The GI50 in the assay on HOP-62 was > 69.7 µM (inactive); in the assay with SK-MEL-2 it was 90.6 µM (inactive).
`COc1c(O)cc2oc(-c3ccc(O)cc3)cc(=O)c2c1O` [HISPIDULIN]: the GI50 with SK-OV-3 was 48.2 µM (inactive); in the assay with IGROV-1 it was 22.7 µM (inactive); in the assay on TK-10, 39.2 µM (inactive); with SF-268 it was 46.6 µM (inactive); with HOP-92 it was 2.91 µM (inactive); in the assay with SF-539, 27 µM (inactive). The GI50 in the assay on SK-MEL-28 is 45.7 µM (inactive); in the assay with NCI/ADR-RES, 36.1 µM (inactive); with T47D it was 33.4 µM (inactive); in the assay with HCT-15, 38.7 µM; in the assay on NCI-H226, 77.6 µM (inactive); with 786-0, 60.1 µM (inactive). In addition, the GI50 is 51.5 µM (inactive) in the assay with RXF 393; 35.8 µM (inactive) in the assay on OVCAR-4; 30.8 µM (inactive) in the assay on NCI-H460; 18.9 µM (inactive) with Hs-578T; 8.07 µM (inactive) in the assay on EKVX; 38.6 µM (inactive) in the assay on M14. For the same compound, the GI50 is 46.7 µM (inactive) in the assay with HOP-62 and 27.2 µM (inactive) in the assay on SK-MEL-2.
